# Target: T1, AhR (Cavia porcellus, UniProt Q6J287)
# T1 sequence (Q6J287 1-846): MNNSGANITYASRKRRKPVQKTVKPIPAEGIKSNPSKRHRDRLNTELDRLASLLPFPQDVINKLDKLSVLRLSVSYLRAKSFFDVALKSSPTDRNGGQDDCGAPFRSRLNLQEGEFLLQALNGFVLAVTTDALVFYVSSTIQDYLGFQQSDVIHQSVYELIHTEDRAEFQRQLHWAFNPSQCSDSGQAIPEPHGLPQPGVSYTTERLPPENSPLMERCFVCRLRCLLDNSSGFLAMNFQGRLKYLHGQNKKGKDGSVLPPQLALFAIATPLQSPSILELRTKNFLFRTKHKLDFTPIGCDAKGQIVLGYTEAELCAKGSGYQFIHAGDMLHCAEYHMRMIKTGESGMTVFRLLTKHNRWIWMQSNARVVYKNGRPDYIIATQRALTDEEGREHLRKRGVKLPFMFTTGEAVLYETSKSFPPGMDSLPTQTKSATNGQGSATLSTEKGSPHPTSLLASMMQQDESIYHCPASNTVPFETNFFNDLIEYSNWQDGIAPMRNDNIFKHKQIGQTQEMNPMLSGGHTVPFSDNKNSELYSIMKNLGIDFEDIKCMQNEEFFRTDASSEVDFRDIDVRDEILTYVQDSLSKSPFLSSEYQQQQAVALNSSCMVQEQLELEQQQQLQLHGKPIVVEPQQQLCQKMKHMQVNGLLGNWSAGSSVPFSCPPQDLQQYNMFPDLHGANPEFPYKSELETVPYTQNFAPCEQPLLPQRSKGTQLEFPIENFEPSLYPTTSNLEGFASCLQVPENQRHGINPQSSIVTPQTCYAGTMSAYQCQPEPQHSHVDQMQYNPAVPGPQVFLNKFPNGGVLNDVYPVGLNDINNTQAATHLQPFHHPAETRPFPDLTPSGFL
# Assay: Receptor capture assay, real-time PCR, AhR derived from guinea pig
# Type: biochemical
# Parameters: The cytosol containing AhR heteromers was stored at; from tissue; host or cells: liver cytosol of Hartley guinea pigs
# Description: A set of calibrators consisting of 5000, 2500, 1250, 626, 313, 156, and 78 parts per trillion (ppt or pg/ml) 2,3,7,8-tetrachlorodibenzo-p-dioxin (TCDD) was prepared in methanol. In addition to TCDD a set of calibrators for AhR agonist, beta-naphthoflavone (BNF) was prepared and analyzed in the assay. Separately, 25 ul of 1:50,000 dilution of 10 uM stock nucleic acid-tracer was added per 1 ml of rodent cytosol, which was the source of AhR, and was aliquoted into glass tubes. The standards were diluted 1:20 into 50-100 ul of rodent cytosol, and incubated for 1-2 hr at room temperature to 37° C. Following incubation, 40 to 100 ul of the reaction was transferred to each well of the antibody-coated Capture Strip and incubated on a shaking platform for 30 min to 1 hr at room temperature. The Capture Strips were washed 5 times with Wash Buffer B, and aspirated; optionally soaking wells for 30 sec-5 min with wash buffer during each cycle. Taqman® Universal PCR Master Mix, primers, and Taqman® probe (Applied Biosystems, Calif.) were added, and adhesive cover applied. PCR was performed and analyzed using an ABI PRISM® 7700, using default settings: 50° C., 2 min, 95° C. […] A threshold cycle (Ct) was determined for each reaction The Ct represents the PCR cycle at which an increase in reporter fluorescence above baseline signal can first be detected.
smiles,measurement,setting,value
"Clc1cc2c(cc1Cl)Oc1cc(Cl)c(Cl)cc1O2 [TCDD, 2,3,7,8-tetrachlorodibenzo-p-dioxin]",slope of dose-response curve,,−1.042
same,EC50 of dose-response curve,pg of TCDD in the assay,2.6 pg
